Assay results published in patent US20260258050A1, “IMMUNOMODULATOR” (HITGEN INC., priority 2023, published 2026).

How the values were obtained:
[1] = molecular target: T1, Human IL-17A (Homo sapiens, UniProt Q16552); test: Inhibition of human IL-17A protein-induced GROα/CXCL1 production in HT-29 cells; format: cell-based; set-up: purchased R&D 317-ILB; host or cells: added exogenously to HT-29 cells; settings: 30 ng/mL human IL-17A protein, 48 h, GROα in supernatant by ELISA kit, read-out: Inhibitory IC50 of compounds on HT-29 cell GROα/CXCL1
T1 sequence (Q16552 20-155 limits assumed): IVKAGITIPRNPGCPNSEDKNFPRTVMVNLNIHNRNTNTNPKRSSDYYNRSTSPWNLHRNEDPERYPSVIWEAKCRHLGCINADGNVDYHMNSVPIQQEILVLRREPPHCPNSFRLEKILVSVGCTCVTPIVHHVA
How it was run: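 Compound dilutions were preincubated 1 h at 37 °C with 30 ng/mL human IL-17A, then added to HT-29 cells (5×10^4/well) for 48 h at 37 °C. GROα in supernatant quantified by ELISA; IC50 for inhibition of its production. Positive control: IL-17A antibody at […].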

[2] = molecular target: T2, Human IL-17AF (Homo sapiens, UniProt Q16552+Q96PD4); test: IL-17AF ELISA (competitive ELISA, IL-17AF/IL-17Ra receptor-ligand binding); settings: human IL-17AF coated plate, human IL-17Ra, read-out: IC50, inhibitory activity of compounds on human IL-17AF
T2 construct: purchased Sino Biological Inc. CT047-H08H
T2 sequence (Q16552 24-155): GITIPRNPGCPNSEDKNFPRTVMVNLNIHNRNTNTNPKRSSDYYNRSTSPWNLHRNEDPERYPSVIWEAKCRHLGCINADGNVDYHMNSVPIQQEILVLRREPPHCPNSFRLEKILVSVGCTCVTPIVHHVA
T2 sequence (Q96PD4 31-163): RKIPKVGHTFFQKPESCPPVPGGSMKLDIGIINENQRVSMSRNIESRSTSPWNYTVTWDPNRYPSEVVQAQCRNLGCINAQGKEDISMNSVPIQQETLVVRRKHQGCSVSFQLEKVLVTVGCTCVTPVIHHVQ
Method: Experiment Example 2 IL-17AF ELISA
The inhibitory effects of human IL-17AF inhibitors on receptor-ligand binding were quantitatively determined by a competitive ELISA.
The ELISA was performed through the following steps.
Human IL-17AF (Sino Biological Inc., Cat #CT047-H08H) was diluted with coating buffer (50 mM PBS, pH 7.4) to reach a concentration of 0.625 μg/ml. 100 μL of the resulting solution was added to each well of a 96-well plate, and the plate was incubated at 37° C. for 30 min. In the blank group, 100 μL of coating buffer was added instead of the IL-17AF solution.
The plate was washed four times with 10 mM PBST (pH 7.4). 200 μL was used per well for each wash. After the final wash, the plate was tapped dry on absorbent paper.
Fresh 5% (w/v) skim milk solution was prepared before the experiment. For example, 5 grams of skim milk powder (Bio-Rad, Cat #170-6404) was completely dissolved in 100 mL of 10 mM PBST. 200 μL of the 5% (w/v) skim milk solution was added to each well, and the plate was incubated on a shaker at 25° C. for 30 min.
(S4) Preparation of 100× to-be-Tested Compound Solutions
During step (S3), the to-be-tested compound solutions were prepared. Each powdered compound was dissolved in dimethyl sulfoxide (DMSO) to reach a stock concentration of 10 mM. The to-be-tested compound solutions were then serially diluted four-fold with DMSO to obtain nine concentrations ranging from […].
(S6) Pre-Incubation of IL-17AF with to-be-Tested Compound Solutions
89 μL of PBST and 1 μL of each of the to-be-tested compound solutions were added to each well and mixed. The plate was pre-incubated at 25° C. for 10 min. In the blank group and the control group, 1 μL of DMSO was added instead of the to-be-tested compound solutions.
(S7) Incubation with Human IL-17Ra
10 μL of 100 nM IL-17Ra (Sino Biological Inc., Cat #10895-H03H) was added to each well, followed by incubation on a shaker at 25° C. for 30 min. The receptor solution was prepared in 10 mM PBST.
(S9) Incubation with Horseradish Peroxidase-Conjugated Antibody
100 μL of mouse anti-Fc tag HRP-conjugated antibody (Sino Biological Inc., Cat #10702-MM01T-H) was added to each well. The plate was incubated on a shaker at 25° C. for 30 min. The antibody was diluted with 5% (w/v) skim milk solution at 1:5,000 (v/v).
100 μL of TMB substrate solution (BD, Cat #555214) was added to each well. Substrate A and substrate B were freshly mixed at a volume ratio of 1:1 before use. The plate was incubated in the dark at 25° C. for 5-15 min.
(S12) Termination and Detection
The color reaction was terminated by addition of 2.5 M HCl. Absorbance was measured at 450 nm using a BMG PHERStar microplate reader.
(S13) Calculation of Half-Maximal Inhibitory Concentration (IC50)
The relative percent residual activity at each compound concentration was calculated according to Equation 1. The IC50 value of each test compound was then calculated in GraphPad 6 using the equation for log(inhibitor) versus normalized response with variable slope, as shown in Equation 2.
relative percent residual activity (%)=[(absorbance of sample−absorbance of blank group)/(absorbance of control group−absorbance of blank group)]%. Equation 1: […]
The compounds prepared in the Examples were tested for IL-17AF inhibitory activity according to the above method.

Compound | IC50 [1] [nM] | IC50 [2] [nM]
Cc1[nH]nc2c1-c1cc(F)c(NC(=O)[C@@H](NC(=O)c3ccnn3CC(C)(F)F)C(C3CC3)C3CC3)cc1COCC2 [compound 87] | 100 to 500 | 100 to 500
Cc1[nH]nc2c1-c1cc(F)c(NC(=O)[C@@H](NC(=O)c3ccnn3CCC(F)(F)F)C(C3CC3)C3CC3)cc1COCC2 [compound 88] | ≤ 100 | 100 to 500
[2H]C([2H])([2H])C([2H])(n1nccc1C(=O)N[C@H](C(=O)Nc1cc2c(cc1F)-c1c(n[nH]c1C)CCOC2)C(C1CC1)C1CC1)C([2H])([2H])[2H] [compound 89] | ≤ 100 | 100 to 500
[2H]C([2H])([2H])C([2H])([2H])n1nccc1C(=O)N[C@H](C(=O)Nc1cc2c(cc1F)-c1c(n[nH]c1C)CCOC2)C(C1CC1)C1CC1 [compound 90] | 100 to 500 | 100 to 500
Cc1[nH]nc2c1-c1cc(F)c(NC(=O)[C@@H](NC(=O)c3ccnn3CCOC(C)C)C(C3CC3)C3CC3)cc1COCC2 [compound 98] | 100 to 500 | 100 to 500
COCC(COC)n1nccc1C(=O)N[C@H](C(=O)Nc1cc2c(cc1F)-c1c(n[nH]c1C)CCOC2)C(C1CC1)C1CC1 [compound 99] | 100 to 500 | 100 to 500
CCOCCn1nccc1C(=O)N[C@H](C(=O)Nc1cc2c(cc1F)-c1c(n[nH]c1C)CCOC2)C(C1CC1)C1CC1 [compound 100] | 100 to 500 | ≤ 100
Cc1[nH]nc2c1-c1cc(F)c(NC(=O)[C@@H](NC(=O)c3ccnn3C[C@@H]3C[C@H]3F)C(C3CC3)C3CC3)cc1COCC2 [compound 101] | ≤ 100 | ≤ 100
Cc1[nH]nc2c1-c1cc(F)c(NC(=O)[C@@H](NC(=O)c3ccnn3CCOC3CC3)C(C3CC3)C3CC3)cc1COCC2 [compound 102] | ≤ 100 | 100 to 500
Cc1[nH]nc2c1-c1cc(F)c(NC(=O)[C@@H](NC(=O)c3ccnn3CCOCC(F)(F)F)C(C3CC3)C3CC3)cc1COCC2 [compound 104] | ≤ 100 | 100 to 500
Cc1[nH]nc2c1-c1cc(F)c(NC(=O)[C@@H](NC(=O)c3cnnn3CCOC(F)F)C(C3CC3)C3CC3)cc1COCC2 [compound 108] | 100 to 500 | 100 to 500
Cc1[nH]nc2c1-c1cc(F)c(NC(=O)[C@@H](NC(=O)c3ccnn3CCOC(C)(C)C)C(C3CC3)C3CC3)cc1COCC2 [compound 113] | 100 to 500 | 100 to 500
Cc1[nH]nc2c1-c1cc(F)c(NC(=O)[C@@H](NC(=O)c3ccnn3CC3(C#N)CC3)C(C3CC3)C3CC3)cc1COCC2 [compound 114] | 100 to 500 | ≤ 100
Cc1[nH]nc2c1-c1cc(F)c(NC(=O)[C@@H](NC(=O)c3ccnn3CC3COC3)C(C3CC3)C3CC3)cc1COCC2 [compound 115] | 100 to 500 | 100 to 500
Cc1[nH]nc2c1-c1cnc(NC(=O)[C@@H](NC(=O)c3ccnn3CCCF)C(C3CC3)C3CC3)cc1COCC2 [compound 124] | ≤ 100 | 100 to 500
Cc1[nH]nc2c1-c1cc(F)c(NC(=O)[C@@H](NC(=O)c3ccnn3C(C)C)C(C3CC3)C3CC3)cc1CN(CC1CC1)CC2 [compound 166] | 100 to 500 | 100 to 500
Cc1[nH]nc2c1-c1cc(F)c(NC(=O)[C@@H](NC(=O)c3ccnn3C(C)C)C(C3CC3)C3CC3)cc1CN(C1CCOCC1)C(=O)C2 [compound 167] | ≤ 100 | 100 to 500

Compound | IC50 [1] [nM] | IC50 [2] [nM]
Cc1[nH]nc2c1-c1cc(F)c(NC(=O)[C@@H](NC(=O)c3ccnn3C(C)C)C(C3CC3)C3CC3)cc1CN(C1CCC(F)(F)CC1)C(=O)C2 [compound 168] | ≤ 100 | 100 to 500
Cc1[nH]nc2c1-c1cc(F)c(NC(=O)[C@@H](NC(=O)c3ccnn3C(C)C)C(C3CC3)C3CC3)cc1CN(C1CC(F)(F)C1)C(=O)C2 [compound 169] | ≤ 100 | ≤ 100
Cc1[nH]nc2c1-c1cc(F)c(NC(=O)[C@@H](NC(=O)c3ccnn3C(C)C)C(C3CC3)C3CC3)cc1CN(C1CCC1)C(=O)C2 [compound 170] | ≤ 100 | ≤ 100
Cc1[nH]nc2c1-c1cc(F)c(NC(=O)[C@@H](NC(=O)c3ccnn3C(C)C)C(C3CC3)C3CC3)cc1CN(C1CCOCC1)CC2 [compound 174] | ≤ 100 | 100 to 500
Cc1[nH]nc2c1-c1cc(F)c(NC(=O)[C@@H](NC(=O)c3ccnn3C(C)C)C(C3CC3)C3CC3)cc1CN(C1CC(F)(F)C1)CC2 [compound 176] | ≤ 100 | ≤ 100
Cc1[nH]nc2c1-c1cnc(NC(=O)[C@@H](NC(=O)c3ccnn3C(C)C)C(C3CC3)C3CC3)cc1CN(Cc1ccccc1)C(=O)C2 [compound 182] | 100 to 500 | 100 to 500
Cc1[nH]nc2c1-c1cnc(NC(=O)[C@@H](NC(=O)c3ccnn3C(C)C)C(C3CC3)C3CC3)cc1CN(C1CC1)C(=O)C2 [compound 191] | ≤ 100 | ≤ 100
Cc1[nH]nc2c1-c1cnc(NC(=O)[C@@H](NC(=O)c3ccnn3C(C)C)C(C3CC3)C3CC3)cc1CN(CC(F)F)C(=O)C2 [compound 192] | ≤ 100 | ≤ 100
Cc1[nH]nc2c1-c1cnc(NC(=O)[C@@H](NC(=O)c3ccnn3C(C)C)C(C3CC3)C3CC3)cc1CN(CC(C)(F)F)C(=O)C2 [compound 193] | ≤ 100 | ≤ 100
Cc1[nH]nc2c1-c1cnc(NC(=O)[C@@H](NC(=O)c3ccnn3C(C)C)C(C3CC3)C3CC3)cc1CN(C1CC(F)(F)C1)C(=O)C2 [compound 194] | ≤ 100 | 100 to 500
Cc1[nH]nc2c1-c1cnc(NC(=O)[C@@H](NC(=O)c3ccnn3C(C)C)C(C3CC3)C3CC3)cc1CN(C(C)C)C(=O)C2 [compound 195] | ≤ 100 | 100 to 500
CC(=O)N1CCc2n[nH]c(C)c2-c2cnc(NC(=O)[C@@H](NC(=O)c3ccnn3C(C)C)C(C3CC3)C3CC3)cc2C1 [compound 196] | 100 to 500 | 100 to 500
Cc1[nH]nc2c1-c1cnc(NC(=O)[C@@H](NC(=O)c3ccnn3C(C)C)C(C3CC3)C3CC3)cc1CN(C1CC1)CC2 [compound 198] | ≤ 100 | 100 to 500
Cc1[nH]nc2c1-c1cnc(NC(=O)[C@@H](NC(=O)c3ccnn3C(C)C)C(C3CC3)C3CC3)cc1CN(CC(C)(F)F)CC2 [compound 199] | ≤ 100 | ≤ 100
Cc1[nH]nc2c1-c1cnc(NC(=O)[C@@H](NC(=O)c3ccnn3C(C)C)C(C3CC3)C3CC3)cc1CN(C(C)C)CC2 [compound 200] | 100 to 500 | 100 to 500
Cc1[nH]nc2c1-c1cnc(NC(=O)[C@@H](NC(=O)c3ccnn3C(C)C)C(C3CC3)C3CC3)cc1CN(C1CCC1)CC2 [compound 201] | ≤ 100 | 100 to 500
